Paper PMC9672079, “Micro-PET imaging of hepatitis C virus NS3/4A protease activity using a protease-activatable retention probe” (Frontiers in Microbiology, 2022)
Square brackets hold non-standard residues; d marks the D form. Peptide text beside a SMILES is read from it. * marks the point of attachment. FITC = O=C1OC2(c3ccc(O)cc3Oc3cc(O)ccc32)c2ccc(NC(=S)*)cc21; Tyr(3-I) = N[C@@H](Cc1ccc(O)c(I)c1)C(=O)O

Legend:
NS3/4A-HCC36 cells [1] = test: Cellular retention of radioactivity of TAT-ΔNS3/4A-124I-FITC, gamma-counter; format: cell-based, Human
Procedure: (§1) HCC36 or NS3/4A-HCC36 (1 × 10^5) cells were seeded with DMEM containing 10% serum in a 24-well plate at 37°C in a CO2 incubator overnight. The cells were incubated with 37 kBq of TAT-ΔNS3/4A-^124I-FITC in the presence or absence of 2 μM telaprevir (Vertex, Cambridge MA) at 37°C for 1 h. After probe staining, the cells were washed using DMEM containing 10% serum per 20 min until the end of the experiment. At different time points, the cells were collected by treatment with trypsin. The radioactivity of the cells was then measured using a gamma-counter. The CPM was normalized by protein concentration.
(§2) FIGURE 4 Specificity and half-life of TAT-ΔNS3/4A-^124I-FITC. (A) NS3/4A-HCC36 and HCC36 cells were incubated with 37 kBq of TAT-ΔNS3/4A-^124I-FITC in the presence or absence of 2 μM Telaprevir at 37°C for 1 h. The cells were washed with DMEM containing 10% serum three times per hour. The cells were collected by treatment with trypsin at the indicated times. The radioactivity of the cells was then measured with a gamma-counter. The CPM was normalized by protein concentration. […] Error bar: standard error of triplicate determinations.

HCC36 cells [2] = test: as above; format: cell-based, Human; details: control HCC36 cells, 37 kBq probe 37°C 1 h, cultured 0, 4, 6, 8 h with washing, CPM normalized by protein
Procedure: as §1, §2

[3] = Blood kinetics (half-life) of TAT-ΔNS3/4A-124I-FITC in mice; parameters: species or system BALB/c nude mice; details: mouse, in vivo, iv, 3700 kBq; BALB/c mice, i.v., 4 h after injection, gamma-counter; read-out: radioactivity in the blood
Source text: BALB/c nude mice (n = 3) were intravenously injected with 3,700 kBq TAT-ΔNS3/4A-^124I-FITC, and blood samples were periodically removed from the tail vein of the mice. The blood was weighed on an analytical balance and assayed for radioactivity in a multichannel gamma-counter. The initial and terminal half-life of the probe was estimated by fitting the data to a two-phase exponential decay model with Prism 4 software (GraphPad Software, San Diego, CA, USA).
as §2

[4] = tested on: liver-implanted NS3/4A-HCC36 or HCC36 tumors; test: Micro-PET imaging in orthotopic liver implantation tumor model (ROI analysis); format: in vivo; details: SCID mice n = 3, i.v. 3,700 kBq, micro-PET 4 h
Source text: The orthotopic liver implantation model was generated as previously described ([Kim et al., 2009]). The NS3/4A-HCC36 tumors or HCC36 tumors from the ectopic tumors were harvested and transplanted into the left liver lobe of SCID mice (n = 3). After 2 weeks, the mice were feed the Lugol’s solution, and then, the 3,700 kBq of TAT-ΔNS3/4A-^124I-FITC was intravenously injected.
The mice were positioned in a micro-PET scanner (R4; Concorde Microsystems, Knoxville, Tenn) with their long axis parallel to the transaxial plane of the scanner. The scanner has a computer-controlled bed with a 10.8-cm transaxial and 8-cm axial field of view. It has no septa and operates exclusively in a three-dimensional list mode. All raw data were first sorted into three-dimensional sinograms, followed by Fourier rebinning and ordered-subsets expectation maximization image reconstruction. Fully three-dimensional list-mode data were collected by using an energy window of 350–750 keV and a time window of 6 nsec. […] The region of interest was analyzed with ASIPro VM version 5.0 (Concorde Microsystems, Knoxville, TN, USA) analysis software.
FIGURE 7 Micro-PET Imaging of NS3/4A activity in orthotopic liver implantation model. […] (B) The accumulation of radioactivity in NS3/4A-HCC36 tumors and HCC36 tumors was measured using a gamma-counter at 2 (white column), 4 (black column), and 6 (gray column) h after probe injection. […]

[5] = tested on: liver-implanted NS3/4A-HCC36 or HCC36 tumors; test: Radioactivity of liver-implanted tumors, gamma-counter; format: in vivo, SCID mice; details: orthotopic liver model, i.v. 3,700 kBq, 6 h
Procedure: (§3) In xenograft model, BALB/c nude mice bearing established NS3/4A-HCC36 and HCC36 tumors (n = 3) were intravenously injected with 3,700 kBq (in 100 μL) TAT-ΔNS3/4A-^124I-FITC. In orthotopic model, SCID mice (n = 3) with NS3/4A-HCC36 or HCC36 tumors implanted in the liver were intravenously also injected with 3,700 kBq (in 100 μL) TAT-ΔNS3/4A-^124I-FITC. Animals were killed after anesthesia with pentobarbital (65 mg/kg) at 2, 4, and 6 h. Radioactivity in isolated tumors and tissues was measured with a multichannel gamma-counter. The biodistribution of the probe was expressed as percentage injected dose per gram of tissue (%ID/g).
FIGURE 7 Micro-PET Imaging of NS3/4A activity in orthotopic liver implantation model. The NS3/4A-HCC36 tumors or HCC36 tumors from the ectopic tumors were harvested and transplanted into the left liver lobe of SCID mice (n = 3). After 2 weeks, the 3,700 kBq of TAT-ΔNS3/4A-^124I-FITC was intravenously injected. (A) PET imaging was performed at 4 h after injection of the probe. (B) The accumulation of radioactivity in NS3/4A-HCC36 tumors and HCC36 tumors was measured using a gamma-counter at 2 (white column), 4 (black column), and 6 (gray column) h after probe injection. Data represent mean ± SEM. Student’s t-test analysis of data. Statistical analysis was compared NS3/4A-HCC36 with HCC36. P < 0.05 was considered statistically significant.

[6] = Long-term biodistribution in xenograft mice; format: in vivo; details: i.v. 3,700 kBq, gamma-counter
Procedure: Supplementary file Image_4.TIF: Supplementary Figure 4 Long-term biodistribution of TAT-ΔNS3/4A-^124I-FITC in xenograft mice. Mice were injected with 3,700 kBq of TAT-ΔNS3/4A-^124I-FITC. Selected organs and tumors were removed from the mice after 4, 12, and 24 h. The radioactivity of individual organs was measured using a gamma-counter and normalized for sample weights. The biodistribution of TAT-ΔNS3/4A-^124I-FITC in selected organs was expressed as percentage injected dose/g tissue. Data represent mean ± SEM. Click here for additional data file.

[7] = tested on: NS3/4A-HCC36 and HCC36 tumors; test: Micro-PET imaging of NS3/4A activity in xenograft mice (ROI analysis); format: in vivo, BALB/c nude mice; details: 6 h, n = 3
Procedure: BALB/c nude mice (n = 3) bearing established HCC36 and NS3/4A-HCC36 (100–200 mm^3) in their right and left hind leg, respectively, were anesthetized by halothane vapor with a vaporizer system. The mice were feed the Lugol’s solution and then intravenously injected with 3,700 kBq (in 100 μL) TAT-ΔNS3/4A-^124I-FITC. PET imaging was sequentially performed at 2, 4, and 6 h. To test the specificity of TAT-ΔNS3/4A-^124I-FITC, telaprevir (20 mg/kg/day for 3 days) or control vehicle was intraperitoneally injected into mice (n = 3) 3 days prior to TAT-ΔNS3/4A-^124I-FITC.
The mice were positioned in a micro-PET scanner (R4; Concorde Microsystems, Knoxville, Tenn) with their long axis parallel to the transaxial plane of the scanner. The scanner has a computer-controlled bed with a 10.8-cm transaxial and 8-cm axial field of view. It has no septa and operates exclusively in a three-dimensional list mode. All raw data were first sorted into three-dimensional sinograms, followed by Fourier rebinning and ordered-subsets expectation maximization image reconstruction. Fully three-dimensional list-mode data were collected by using an energy window of 350–750 keV and a time window of 6 nsec. Image pixel size was 0.85 mm transaxially, with a 1.21-mm section thickness. The region of interest was analyzed with ASIPro VM version 5.0 (Concorde Microsystems, Knoxville, TN, USA) analysis software. […]

[8] = tested on: NS3/4A-HCC36 and HCC36 tumors; test: Biodistribution in xenograft mice, gamma-counter; format: in vivo, BALB/c nude mice
Procedure: as §3
FIGURE 6 Biodistribution of TAT-ΔNS3/4A-^124I-FITC in xenograft mice. Mice bearing established NS3/4A-HCC36 and HCC36 tumors were injected with 3,700 kBq of TAT-ΔNS3/4A-^124I-FITC. Selected organs and tumors were removed from the mice after 2 (white column), 4 (black column), and 6 (gray column) h. The radioactivity of individual organs was measured using a gamma-counter and normalized for sample weights. The biodistribution of TAT-ΔNS3/4A-^124I-FITC in selected organs was expressed as percentage injected dose/g tissue. Data represent mean ± SEM.

NS3/4A-HCC36 cells [9] = test: Specific retention of probe via flow cytometry; format: cell-based, Human; details: 10 μM probe 1 h, washed three times per hour, 8 h
Procedure: (§4) We also used the WT probe (GRKKRRQRRR-[…]-LKKKYK-FITC) and the scrambled sequence probe (GRKKRRQRRR-[…]-LKKKYK) that could not be activated by protease as a control group to test the specific retention of probe via flow cytometry. HCC36 cells, NS3/4A-HCC36 cells, or JFH-1-infected HCC36 cells were incubated with 10 μM TAT-ΔNS3/4A-FITC or 10 μM TAT-scrambled NS3/4A-FITC in the absence or presence of 2 μM telaprevir (NS3/4A protease inhibitor) at 37 °C for 1 h. The cells were washed with DMEM containing 10% serum three times per hour. After culturing for 1 or 8 h, the fluorescence of viable cells was observed via flow cytometry.
(§5) Supplementary file Image_5.TIF: Supplementary Figure 5 To evaluate the specific retention of probe via flow cytometry, we used the WT probe (GRKKRRQRRR-[…]-LKKKYK-FITC) and the scrambled sequence probe (GRKKRRQRRR-[…]-LKKKYK) that could not be activated by protease as a control group to test the specific retention of probe via flow cytometry. HCC36 cells, NS3/4A-HCC36 cells, or JFH-1-infected HCC36 cells were incubated with 10 μM TAT-ΔNS3/4A-FITC or 10 μM TAT-scrambled NS3/4A-FITC in the absence or presence of 2 μM telaprevir (NS3/4A protease inhibitor) at 37°C for 1 h. The cells were washed with DMEM containing 10% serum three times per hour. After culturing for 1 or 8 h, the fluorescence of viable cells was observed via flow cytometry. Click here for additional data file.

[10] = tested on: JFH-1-infected HCC36 cells; test: Specific retention of probe via flow cytometry; format: cell-based, Human; details: 10 μM probe 1 h, washed three times per hour, 8 h
Procedure: as §4, §5

HCC36 cells [11] = test: Specific retention of probe via flow cytometry; format: cell-based, Human; details: control HCC36 cells, 10 μM probe 1 h, washed three times per hour, 8 h
Procedure: as §4, §5

| Molecule | radioactivity retained in the cells (NS3/4A-HCC36 cells [1]; 37 kBq probe 37°C 1 h, cultured 0, 4, 6, 8 h with washing, CPM normalized by protein) | radioactivity retained in the cells after inhibitor treatment (NS3/4A-HCC36 cells [1]; 37 kBq probe + 2 μM telaprevir) | radioactivity retained in the cells (HCC36 cells [2]) | tissue uptake at 4 h [3] [%ID/g] | ROI, implanted NS3/4A-HCC36 tumors vs HCC36 tumors [4] [fold] | uptake of radioactivity, implanted NS3/4A-HCC36 tumors vs implanted HCC36 tumors [5] [fold] | radioactivity in tissues at 24 h ([6]; 24 h) | long-term accumulation of probe in kidney (and stomach) ([6]; organs at 4, 12, 24 h) | ROI radioactivity, NS3/4A-HCC36 tumors vs HCC36 tumors ([7]; i.v. 3,700 kBq) [fold] | ROI radioactivity, NS3/4A-HCC36 tumors vs HCC36 tumors, after inhibitor treatment ([7]; telaprevir 20 mg/kg/day i.p. for 3 days before probe) [fold] | radioactivity in normal organs (stomach, kidneys) ([8]; i.v. 3,700 kBq, 2, 4, 6 h) | accumulation of radioactivity, NS3/4A-HCC36 tumors vs HCC36 tumors ([8]; i.v. 3,700 kBq, 6 h, %ID/g, n = 3) [fold] | fluorescence retention after culturing for 8 h (NS3/4A-HCC36 cells [9]) | fluorescence retention after culturing for 8 h [10] | fluorescence retention after culturing for 8 h (HCC36 cells [11]) |
| --- | --- | --- | --- | --- | --- | --- | --- | --- | --- | --- | --- | --- | --- | --- | --- |
| CSCC[C@H](NC(=O)[C@H](CCC(=O)O)NC(=O)[C@H](CC(=O)O)NC(=O)[C@H](CCC(=O)O)NC(=O)[C@H](CC(=O)O)NC(=O)[C@H](CCC(=O)O)NC(=O)[C@H](CC(=O)O)NC(=O)[C@H](CCC(=O)O)NC(=O)[C@H](CC(=O)O)NC(=O)[C@H](CCCNC(=N)N)NC(=O)[C@H](CCCNC(=N)N)NC(=O)[C@H](CCCNC(=N)N)NC(=O)[C@H](CCC(N)=O)NC(=O)[C@H](CCCNC(=N)N)NC(=O)[C@H](CCCNC(=N)N)NC(=O)[C@H](CCCCN)NC(=O)[C@H](CCCCN)NC(=O)[C@H](CCCNC(=N)N)NC(=O)CN)C(=O)N[C@@H](CCC(=O)O)C(=O)N[C@@H](CCC(=O)O)C(=O)N[C@@H](CS)C(=O)N[C@@H](C)C(=O)N[C@@H](CO)C(=O)N[C@@H](Cc1c[nH]cn1)C(=O)N[C@@H](CC(C)C)C(=O)N[C@@H](CCCCN)C(=O)N[C@@H](CCCCN)C(=O)N[C@@H](CCCCN)C(=O)N[C@@H](Cc1ccc(O)c(I)c1)C(=O)N[C@@H](CCCCNC(=S)Nc1ccc2c(c1)C(=O)OC21c2ccc(O)cc2Oc2cc(O)ccc21)C(=O)O [TAT-ΔNS3/4A-^124I-FITC] (H-GRKKRRQRRRDEDEDEDEMEECASHLKKK[Tyr(3-I)]K(FITC)-OH; N-terminus and C-terminus assumed) | A high level of radioactivity was detected | radioactivity did not accumulate | not in control HCC36 cells | 2.6 ± 0.1 | 4.75 | 3.1 | did not accumulate in the all of tissues at 24 h | accumulation of probe in kidney and in stomach would quickly reduce at 12 and 24 h | 2.53 | 1.31 | high levels of radioactivity were observed in the stomach and kidneys | 2.7 |  |  |  |
| GRKKRRQRRR-ECEEEEESMDDDAH-LKKKYK [scrambled sequence probe] |  |  |  |  |  |  |  |  |  |  |  |  | cannot be accumulated in each cell | cannot be accumulated in each cell | cannot be accumulated in each cell |
